Legend:
[1] = In vivo observation of behavioural parameters (risk, side effects) in mouse model; parameters: species or system mice
Source text: (§1) The risk (intended as side effects) was estimated through the observation of behavioural parameters (impacting the behaviour itself, the locomotor system, muscle strength and nervous reflexes) and through the potential weight loss of the animal.
(§2) Data obtained by animal testing, considered in the context of the risk, are behavioural parameters and body weight loss at the end of experimentation.
The behavioural parameters monitored are listed below: • 1. Loss of Spontaneous activity • 2. Loss of Cleaning • 3. Loss of Curiosity • 4. Loss of Reactivity • 5. Loss of Straightening reflex • 6. Loss of Physical strength • 7. Impairment of Palpebral opening • 8. Palpebral reflex • 9. Tremors • 10. Pallor • 11. Stereotypies • 12. Passivity
The values of the parameters 1-8 are normalized as: “Not treated animal value” (always equal to 0)+“Treated animal value”.
The values of the parameters 9-12 are normalized as: “Not treated animal value”−“Treated animal value”.
(§3) The benefit (intended as therapeutic activity) was instead evaluated by taking into consideration the reduction in size of the tumour mass compared to the untreated tumour. For this purpose, immunocompromised mice bearing xenografted FaDu head and neck squamous carcinoma cells were included in the study once tumours reached a volume of 100 mm^3. Mice received daily intratumoral injections of EpigenAU/11 and intraperitoneal cisplatin on alternating days.

[2] = test system: xenografted FaDu head and neck squamous carcinoma cells; experiment: In vivo tumour mass size in mice bearing xenografted FaDu cells (benefit); conditions: daily intratumoral EpigenAU/11, intraperitoneal cisplatin on alternating days; treated day 27; vehicle 1.38
Description: Data obtained by animal testing, considered in the context of benefit, is the tumour mass size reached at the end of in vivo test for each treatment.
Data were calculated as “Reduction in the size of tumour mass” by the formula:
1−[“Tumour mass size collected from treated animals (day of observation: 27)/Tumour mass size collected from untreated animals (day of observation: 19)]
as §3

[3] = In vivo body weight (potential weight loss) at the end of experimentation; parameters: species or system mice; conditions: mouse
Description: as §1, §2
The potential weight loss of the treated animals was also assessed.” Data were processed using the formula: […]
as §3

SMILES: N.N.[Cl][Pt][Cl] [Cisplatin]
- Cleaning (Behaviour), Mean [1]: 2.90
- Curiosity (Behaviour), Mean [1]: 2.60
- Pallor (Nervous system), Mean [1]: 2.00
- Palpebral opening (Nervous system), Mean [1]: 2.00
- Palpebral reflex (Nervous system), Mean [1]: 2.80
- Passivity (Behaviour), Mean [1]: 1.60
- Physical strenght (Muscle), Mean [1]: 2.70
- Reactivity (Behaviour), Mean [1]: 2.20
- Spontaneous activity (Behaviour), Mean [1]: 2.50
- Stereolipies (Locomotor system), Mean [1]: 0.00
- Straightening reflex (Locomotor system), Mean [1]: 2.60
- Tremors (Nervous system), Mean [1]: 0.80
- Size of tumor masses (Tumor viability), Mean [2]: 0.50
- Body weight (Nutritional and metabolic system), Mean [3]: 29.12
